According to US9179694B2, “Method and composition for enhancing milk production and milk component concentrations” (PURINA ANIMAL NUTRITION LLC, priority 2003, dated 2015):

Experiment: Dry matter feed intake in sorbitol feeding trials
Type: in vivo, Holstein cows
Protocol: To determine the dry matter weight (or dry matter basis or dry basis) of a particular sample, the sample is first weighed. The weighed sample is then dried in an oven at a temperature that is adequate to drive off moisture from the sample without degrading the sample components, such as a temperature ranging from about 100° C. to about 110° C. The oven drying is continued until the weight of the dried sample remains constant, despite additional oven drying. During the pre-partum period, for all cows utilized in Example One or Example Two, the pre-partum control feed, as modified to include any sorbitol indicated above for the different trials, was placed in the feeding troughs of the different cows participating in the different trials once daily in the morning. Thereafter, these different pre-partum feeds (the pre-partum control feed, including any incorporated sorbitol dosage of a particular trial during the pre-partum period) of the different trials were lightly stirred, separately and individually, in front of the cows of the different trials three times per day during the pre-partum period to encourage additional feed ingestion by the cows. Leftover rations from the previous day's feeding were collected and weighed from each feeding trough during the pre-partum period, prior to feeding the test cows on a subsequent day. The cows of the different trials received a sufficient amount of the pre-partum to ensure at least about ten weight percent of the pre-partum feeds of the different trials remained in the feeding troughs of each trial each day of the pre-partum period, based on the amount of the different pre-partum feeds of the different trials provided at the beginning of each day. Feed refusals were measured daily during the pre-partum period, and water was supplied ad libitum. During the early post-partum period, for all cows utilized in Example One or Example Two, the first post-partum control feed, as modified to include any sorbitol indicated above for the different trials, was placed in the feeding troughs of the different cows participating in the different trials once daily in the morning. Thereafter, these first post-partum feeds (the first post-partum control feed, including any incorporated sorbitol dosage of a particular trial during the early post-partum period) of the different trials were lightly stirred, separately and individually, in front of the cows of the different trials three times per day during the early post-partum period to encourage additional feed ingestion by the cows. Leftover rations from the previous day's feeding were collected and weighed from each feeding trough during the early post-partum period, prior to feeding the test cows on a subsequent day. The cows of the different trials received a sufficient amount of the first post-partum feed to ensure at least about ten weight percent of the first post-partum feeds of the different trials remained in the feeding troughs of each trial each day of the early post-partum period, based on the amount of the different first post-partum feeds of the different trials provided at the beginning of each day. Feed refusals were measured daily during the early post-partum period, and water was supplied ad libitum. […] Thereafter, the second post-partum control feed were lightly stirred, separately and individually, in front of the cows of the different trials three times per day during the weeks +5 through +8 to encourage additional feed ingestion by the cows. Leftover rations from the previous day's feeding were collected and weighed from each feeding trough during weeks +5 through +8, prior to feeding the test cows on a subsequent day. […]

With `OC[C@@H](O)[C@@H](O)[C@H](O)[C@@H](O)CO` [sorbitol] the “Dry Matter Feed Intake” value (Pre/Post Trial #1 (150/125/100 g/day in wk −3..−1/+1..+4/+5..+8), multiparious cows, week +7, two-trial comparison with Control Trial #2 (Table 22)) was 54.9 lbs/day, the “Dry Matter Intake” value (Pre/Post Trial #1 (150/125/100 g/day in wk −3..−1/+1..+4/+5..+8), multiparious cows, week +8) was 57.1 lbs/day and the “Dry Matter Feed Intake” value (Pre/Post Trial #1 (150/125/100 g/day in wk −3..−1/+1..+4/+5..+8), multiparious cows, week +8, two-trial comparison with Control Trial #2 (Table 22)) was 57.4 lbs/day. For the same compound, the “Dry Matter Intake” value (Pre/Post Trial #1 (150/125/100 g/day in wk −3..−1/+1..+4/+5..+8), multiparious cows, week −1) was 33.3 lbs/day, the “Dry Matter Feed Intake” value (Pre/Post Trial #1 (150/125/100 g/day in wk −3..−1/+1..+4/+5..+8), multiparious cows, week −1, two-trial comparison with Control Trial #2 (Table 22)) was 33.4 lbs/day and the “Dry Matter Intake” value (Pre/Post Trial #1 (150/125/100 g/day in wk −3..−1/+1..+4/+5..+8), multiparious cows, week −2) was 34.6 lbs/day. For the same compound, the “Dry Matter Feed Intake” value (Pre/Post Trial #1 (150/125/100 g/day in wk −3..−1/+1..+4/+5..+8), multiparious cows, week −2, two-trial comparison with Control Trial #2 (Table 22)) was 35.2 lbs/day, the “Change in Dry Matter Feed Intake” value (Pre/Post Trial #1 (150/125/100 g/day in wk −3..−1/+1..+4/+5..+8), multiparious cows, week −2 versus −1) was −1.39 lbs/day and the “Change in Dry Matter Feed Intake” value (Pre/Post Trial #1 (150/125/100 g/day in wk −3..−1/+1..+4/+5..+8), multiparious cows, week −2 versus −1, two-trial comparison with Control Trial #2 (Table 22)) was −1.83 lbs/day. The “Dry Matter Intake” value (Pre/Post Trial #1 (150/125/100 g/day in wk −3..−1/+1..+4/+5..+8), multiparious cows, week −3) was 29.6 lbs/day, the “Dry Matter Feed Intake” value (Pre/Post Trial #1 (150/125/100 g/day in wk −3..−1/+1..+4/+5..+8), multiparious cows, week −3, two-trial comparison with Control Trial #2 (Table 22)) was 30.7 lbs/day and the “Dry Matter Intake” value (Pre/Post Trial #1 (150/125/100 g/day in wk −3..−1/+1..+4/+5..+8), multiparious cows, weeks +1 through +4) was 45.4 lbs/day. The “Dry Matter Feed Intake” value (Pre/Post Trial #1 (150/125/100 g/day in wk −3..−1/+1..+4/+5..+8), multiparious cows, weeks +1 through +4, two-trial comparison with Control Trial #2 (Table 22)) was 45.7 lbs/day, the “Dry Matter Intake” value (Pre/Post Trial #1 (150/125/100 g/day in wk −3..−1/+1..+4/+5..+8), multiparious cows, weeks +1 through +8) was 50.1 lbs/day and the “Dry Matter Feed Intake” value (Pre/Post Trial #1 (150/125/100 g/day in wk −3..−1/+1..+4/+5..+8), multiparious cows, weeks +1 through +8, two-trial comparison with Control Trial #2 (Table 22)) was 50.4 lbs/day. The “Dry Matter Intake” value (Pre/Post Trial #1 (150/125/100 g/day in wk −3..−1/+1..+4/+5..+8), multiparious cows, weeks +5 through +8) was 54.9 lbs/day, the “Dry Matter Feed Intake” value (Pre/Post Trial #1 (150/125/100 g/day in wk −3..−1/+1..+4/+5..+8), multiparious cows, weeks +5 through +8, two-trial comparison with Control Trial #2 (Table 22)) was 55.3 lbs/day and the “Dry Matter Intake” value (Pre/Post Trial #1 (150/125/100 g/day in wk −3..−1/+1..+4/+5..+8), multiparious cows, weeks −3 through −1) was 32.6 lbs/day. For the same compound, the “Dry Matter Feed Intake” value (Pre/Post Trial #1 (150/125/100 g/day in wk −3..−1/+1..+4/+5..+8), multiparious cows, weeks −3 through −1, two-trial comparison with Control Trial #2 (Table 22)) was 33.0 lbs/day, the “greater increase of dry matter feed intake” value (Pre/Post Trial #1 (150/125/100 g/day) compared to Control Trial #2, multiparous cows, week −1 before calving versus week +1 after calving) was 3.19 pounds per day and the “greater daily rate of dry matter feed intake” value (Pre/Post Trial #1 (150/125 g/day pre-/early post-partum) versus Pre/Post Trial #2 (75/75 g/day), multiparious cows, early post-partum period (weeks +1 through +4)) was 7.6%. For the same compound, the “Dry Matter Intake” value (Pre/Post Trial #2 (75/75/100 g/day in wk −3..−1/+1..+4/+5..+8), multiparious cows, week +1) was 33.1 lbs/day, the “Change in Dry Matter Feed Intake” value (Pre/Post Trial #2 (75/75/100 g/day in wk −3..−1/+1..+4/+5..+8), multiparious cows, week +1 versus −1) was 0.72 lbs/day and the “Dry Matter Intake” value (Pre/Post Trial #2 (75/75/100 g/day in wk −3..−1/+1..+4/+5..+8), multiparious cows, week +2) was 41.2 lbs/day. The “Dry Matter Intake” value (Pre/Post Trial #2 (75/75/100 g/day in wk −3..−1/+1..+4/+5..+8), multiparious cows, week +3) was 45.3 lbs/day, the “Dry Matter Intake” value (Pre/Post Trial #2 (75/75/100 g/day in wk −3..−1/+1..+4/+5..+8), multiparious cows, week +4) was 49.8 lbs/day and the “Dry Matter Intake” value (Pre/Post Trial #2 (75/75/100 g/day in wk −3..−1/+1..+4/+5..+8), multiparious cows, week +5) was 53.6 lbs/day. For the same compound, the “Dry Matter Intake” value (Pre/Post Trial #2 (75/75/100 g/day in wk −3..−1/+1..+4/+5..+8), multiparious cows, week +6) was 54.2 lbs/day, the “Dry Matter Intake” value (Pre/Post Trial #2 (75/75/100 g/day in wk −3..−1/+1..+4/+5..+8), multiparious cows, week +7) was 53.3 lbs/day and the “Dry Matter Intake” value (Pre/Post Trial #2 (75/75/100 g/day in wk −3..−1/+1..+4/+5..+8), multiparious cows, week +8) was 55.0 lbs/day. For the same compound, the “Dry Matter Intake” value (Pre/Post Trial #2 (75/75/100 g/day in wk −3..−1/+1..+4/+5..+8), multiparious cows, week −1) was 32.3 lbs/day, the “Dry Matter Intake” value (Pre/Post Trial #2 (75/75/100 g/day in wk −3..−1/+1..+4/+5..+8), multiparious cows, week −2) was 36.3 lbs/day and the “Change in Dry Matter Feed Intake” value (Pre/Post Trial #2 (75/75/100 g/day in wk −3..−1/+1..+4/+5..+8), multiparious cows, week −2 versus −1) was −3.91 lbs/day. For the same compound, the “Dry Matter Intake” value (Pre/Post Trial #2 (75/75/100 g/day in wk −3..−1/+1..+4/+5..+8), multiparious cows, week −3) was 31.9 lbs/day, the “Dry Matter Intake” value (Pre/Post Trial #2 (75/75/100 g/day in wk −3..−1/+1..+4/+5..+8), multiparious cows, weeks +1 through +4) was 42.2 lbs/day and the “Dry Matter Intake” value (Pre/Post Trial #2 (75/75/100 g/day in wk −3..−1/+1..+4/+5..+8), multiparious cows, weeks +1 through +8) was 48.2 lbs/day. For the same compound, the “Dry Matter Intake” value (Pre/Post Trial #2 (75/75/100 g/day in wk −3..−1/+1..+4/+5..+8), multiparious cows, weeks +5 through +8) was 54.1 lbs/day, the “Dry Matter Intake” value (Pre/Post Trial #2 (75/75/100 g/day in wk −3..−1/+1..+4/+5..+8), multiparious cows, weeks −3 through −1) was 33.2 lbs/day and the “decrease in dry matter feed intake” value (average of means of Pre-Partum Trial #2, Pre/Post Trial #1 and Pre/Post Trial #2 versus Control Trial #2, multiparious cows, pre-partum period (weeks −3 through −1)) was 4.9%.
